Measured values: US20240150339A1, “Compounds and Their Use as PDE4 Activators” (Mironid Limited, priority 2021, published 2024)
Where a name gives a salt, the structure may show the parent alone.

Assays:
[1] = system: m-IMCD3 cells; experiment: Inhibition of PGE2-stimulated in vitro cyst formation in 3D culture of m-IMCD3 cells; format: cell-based, mouse; settings: Mus musculus, mIMCD3, 144 h; 10 μM test compound; mean cyst area (%) compared to 100% for (DMSO + PGE2) and 0% for DMSO control; 100 nM PGE2; 6 days; read-out: % Cyst area after incubation with 10 μM test compound
How it was run: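 Mouse m-IMCD3 cells grown in 3D collagen I/Matrigel gels. From 18-24 h after plating, compound (0.1% DMSO) plus 100 nM PGE2 were added and replenished at 2-3 days. After 6 days, imaging gave mean cyst area, scaled to 100% for DMSO+PGE2 and 0% for DMSO alone.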

[2] = system: MDCK cells; experiment: Inhibition of PGE2-stimulated in vitro cyst formation in 3D culture of MDCK cells; format: cell-based; settings: total cyst area (%) compared to 100% for (DMSO + PGE2) and 0% for DMSO control, 300 nM PGE2
Description: HEK 293 and MDCK cells (Public Health England, Cell Culture Collections) were maintained in Dulbecco's Modified Eagle's Medium (DMEM) supplemented with 10% (v/v) fetal bovine serum (FBS) (Seralab), 2 mM L-glutamine and 100 U/ml penicillin streptomycin cocktail (ThermoFisher); termed complete media. Clonal HEK 293 cell lines were maintained in complete media supplemented with 0.6 mg/mL G418 (Enzo Life Sciences). Mouse inner medullary collecting duct (m-IMCD3) cells [American Type Culture Collection (ATCC)] were maintained in media consisting of DMEM/Hams F-12 50/50 Mix (DMEM F12; Corning) supplemented with penicillin streptomycin cocktail (100 U/ml) and FBS (10% v/v) (DMEM F12-10% FBS).
In this study, the well-established three-dimensional (3D) MDCK cell model is used to investigate the effects of PDE4 long form activators on the formation of kidney cysts and evaluate their potential in the treatment of polycystic kidney diseases. 3D cysts are generated based on the method of Mao et al. (Mao, Z., Streets, A. J., Ong, A. C. M. Am. J. Physiol. Renal Physiol. 300 (6): F1375-F1384, 2011), with some modifications.
The assay is conducted in the wells of a 96-well plate culture dish using a total volume of 130 μl of collagen suspension in growth media for each matrix plug per individual well. Rat Collagen I (Fisher Scientific) is prepared on ice by neutralising with 1M NaOH and diluting with a 2×volume of DMEM-2% FBS. 30 μl of collagen/Media mix is added into the well of a 96 well plate and the collagen is set to a gel by incubating at 37° C. for at least 15 minutes. A second layer of 100 μl collagen/Matrigel suspension containing MDCK cells (1.0×10^4 MDCK cells per well) is then layered over the first layer and the collagen/cell mix again set to a gel by incubating at 37° C. 100 μl DMEM growth media is added and cells are incubated at 37° C. for 24 hours. 24 hours after cell seeding, DMEM-2% FBS is added along with the test compound indicated in the presence of 300 nM prostaglandin E2 (PGE2) (Sigma Aldrich) in quadruplicate wells per condition. Media, together with the test compound and PGE2 are replenished every 3 days for 10-15 days.
After 10-15 days of culture z stack images of the wells are captured using the Nikon Eclipse Ti2-E microscope. Nikon General Analysis software is used to measure the following parameters in each well: the mean cyst area, the number of cysts, and the total cyst area.
PDE4 long form activators inhibited in vitro cyst formation in MDCK cells. Data are shown in Table 6 as total cyst area (%), compared to 100% for (DMSO+PGE2) and 0% for DMSO control.

[3] = system: m-IMCD3 cell culture; experiment: Reduction of cAMP levels in m-IMCD3 cell culture media (cAMP ELISA); format: cell-based, mouse; settings: compared to 100% for (DMSO + PGE2)
Source text: Experiment 4a: Reduction of cAMP Levels in m-IMCD3 Cell Culture Treated with PDE4 Long Form Activators Activation of intracellular PDE4 long forms leads to a reduction of both intracellular cAMP and externalised cAMP (Omar et al., PNAS 116: 13320-13329, 2019). This reduction may be measured in the cell culture media supernatant of 3D cystic cell cultures, such as in the m-IMCD3 cell cyst suppression assay described in Experiment 4.
Following the completion of the m-IMCD3 cell cyst suppression assay, the cAMP levels in the assay media from individual assay wells was measured using a cAMP ELISA kit (Enzo Life Sciences) according to the manufacturer's instructions.
Treatment with PDE4 long form activators reduced cAMP levels in PGE2-stimulated m-IMCD3 cell culture.

SMILES	activity at 10 µM [1]	% Cyst area after incubation with 1 μM test compound [2]	cAMP level (% of PGE2-stimulated) after incubation with 10 μM test compound [3]
O=C(N[C@H]1CCOc2ccccc21)c1ccc2nc(N3CCNCC3)sc2c1 [Example 83, (S)-N-(chroman-4-yl)-2-(piperazin-1-yl)benzo[d]thiazole-6-carboxamide hydrochloride]	6%	−1%	
CN1CCC(c2nc3ccc(C(=O)NC4CCCC4)cc3s2)CC1 [Example 151, N-cyclopentyl-2-(1-methylpiperidin-4-yl)benzo[d]thiazole-6-carboxamide]	10%		54%
O=C(NC1CCC(F)(F)CC1)c1ccc2nc(C3CCN(CCO)CC3)sc2c1 [Example 174, N-(4,4-difluorocyclohexyl)-2-(1-(2-hydroxyethyl)piperidin-4-yl)benzo[d]thiazole-6-carboxamide]			27%
COc1c(C(=O)NC2CCCC2)ccc2nc(N3C4CCC3CNC4)sc12 [Example 236, 2-(3,8-diazabicyclo[3.2.1]octan-8-yl)-N-cyclopentyl-7-methoxybenzo[d]thiazole-6-carboxamide]		20%	
CC(C)NC(=O)c1cc(C#N)c2nc(N3C4CCC3CNC4)sc2c1 [Example 238, 2-(3,8-diazabicyclo[3.2.1]octan-8-yl)-4-cyano-N-isopropylbenzo[d]thiazole-6-carboxamide]		24%	
O=C(NC1CCC(F)(F)CC1)c1ccc2nc(N3C4CCC3CNC4)sc2c1 [Example 240, 2-(3,8-diazabicyclo[3.2.1]octan-8-yl)-N-(4,4-difluorocyclohexyl)-benzo[d]thiazole-6-carboxamide]	5%		41%
O=C(NC1CCC(F)(F)CC1)c1ccc2nc(N3CC4CCC(C3)N4)sc2c1 [Example 245, 2-(3,8-diazabicyclo[3.2.1]octan-3-yl)-N-(4,4-difluorocyclohexyl)-benzo[d]thiazole-6-carboxamide]		4%	
O=C(NC1CCC(F)(F)CC1)c1ccc2nc(N3CC4CCC(C3)N4CCO)sc2c1 [Example 247, N-(4,4-difluorocyclohexyl)-2-(8-(2-hydroxyethyl)-3,8-diazabicyclo[3.2.1]octan-3-yl)benzo[d]thiazole-6-carboxamide]		1%	
CN1CCN(c2nc3ccc(C(=O)NC4CCCC4)cc3s2)CC12CC2 [Example 260, N-cyclopentyl-2-(4-methyl-4,7-diazaspiro[2.5]octan-7-yl)benzo[d]thiazole-6-carboxamide]		11%	
